Experimental data published in patent publication US20080057086A1, “COLON-TARGETED ORAL FORMULATIONS OF CYTIDINE ANALOGS” (PHARMION CORPORATION, priority 2006, published 2008).
Where two headings read alike, the source gives them in different places.

Tests used:
leukemic mice = settings: cited from earlier work
human colonic tissue = assay: Permeation enhancement in human colonic strips; format: in vitro ADME; settings: without enzymatic inhibition (FIGS. 3, 4)
Description: This model allows evaluation of the absorption potential of drugs and differences in drug absorption across the human jejunum, ileum, and colon and is based on Ungell et al. “Membrane Transport of Drugs in Different Regions of the Intestinal Tract of the Rat”, J. Pharm. Sci. 87:360-366, (1998) and Nejdfors et al. “Mucosal in vitro Permeability in the Intestinal Tract of the Pig, the Rat, and Man: Species and Region Related Differences”, Scand. J. Gastroenterol. 35:501-507, (2000). Permeation experiments were performed for 5-azacytidine in the jejunal, ileal, and colonic tissues originating from the same human donor. Post-mortem human whole intestine was obtained from the International Institute for the Advancement of Medicine (IIAM). Tissues were used within 24 hours of the organ's removal. Tissues were maintained in cold transport media before being stripped. The segments were cut along the mesenteric border, the underlying musculature was stripped off, and the epithelium was rinsed with ice cold normal saline. The stripped tissues were mounted within the vertical USSING chambers (Harvard Apparatus, Holliston, Mass.). In these studies, 5-azacytidine permeability was measured in both absolute rate and relative to atenolol (internal control). In all cases the net apparent permeability was assessed in the mucosal to serosal direction only.

total hemoglobin = settings: β^0-thalassemic patient, cited from earlier work
[1] = tested on: fetal hemoglobin production; settings: baboons; IV, SC or PO route; PO needed co-administration of THU; 0.25 to 8 mg/kg/d with 20 mg/kg/d THU; cited from earlier work
[2] = tested on: total hemoglobin, fetal hemoglobin and F cells; settings: sickle cell patients, cited from earlier work
[3] = Excipient compatibility studies; format: physicochemical
[4] = Caco 2 monolayer permeability of 5-azacytidine with and without excipients; format: in vitro ADME; settings: human
Procedure: The Caco-2 cells are an intestinal epithelial cell line (human colon adenocarcinoma established from the primary colon tumor (adenocarcinoma)) Monolayers of Caco-2 cells are used to classify the intestinal absorption potential of a drug candidate molecule. The assay was carried out in accordance with P. Artursson and J. Karlsson, “Correlation between Oral Drug Absorption in Humans and Apparent Drug Permeability Coefficients in Human Intestinal Epithelial (Caco-2) Cells”, Biochem. Biophys. Res. Commun. 175, 880 (1991).
Briefly, Caco-2 cells were grown to confluence on collagen-coated, microporous polycarbonate in 12-well plates. For the assay buffer, Dulbecco's Phosphate Buffered Saline at pH 7.4 was used. […] The test compound was then dosed on either the apical or basolateral side of the Caco-2 monolayer, and flux across the monolayer was determined both one and two hours after dosing. Results were compared to control high permeability compounds metoprolol and antipyrine and low permeability compounds atenolol and ranitidine, and were expressed as Papp (apparent permeability) compared to reference compound standards. Integrity of the monolayers was determine both before and after testing by measuring the […] electrical resistance (TEER) value. Apparent permeability is calculated as (dCr/dt)×Vr/(A×C0) where dCr/dt is the slope of the cumulative concentration in the receiver compartment versus time in micromolar per second, Vr is the volume of the receiver compartment in cubic centimeters, A is the area of the cell monolayer, and C0 is the measured initial donor concentration in micromolar.

[5] = PO administration with THU versus without, bioassay

SMILES: Nc1ncn([C@@H]2O[C@H](CO)[C@@H](O)[C@H]2O)c(=O)n1 [5-azacytidine, 4-amino-1-β-D-ribofuranosyl-1,3,5-triazin-2(1H)-one]
- Effect of THU on clearance or degradation of 5-azacytidine (leukemic mice; IP administration with THU, bioassay): little effect
- Cmax (leukemic mice; [5]): significantly increased
- t1/2 (leukemic mice; [5]): significantly increased
- Efficacy with co-administration of THU (leukemic mice; PO with THU, all doses except the highest chronic dose which was toxic): increased efficacy
- Effect of THU on pharmacodynamic effects of 5-azacytidine (leukemic mice; acute and chronic IP dosing with THU, except at the highest chronic dose which was toxic): did not influence
- Permeability with permeation enhancer (human colonic tissue; various concentrations of Labrafil): did not appear to affect
- Permeability with permeation enhancer (human colonic tissue; various concentrations of TPGS): trend toward greater permeability with increasing levels of TPGS
- Hemoglobin levels (total hemoglobin; 2 mg/d tid PO with co-administration of THU): did not result in increased hemoglobin levels
- Hemoglobin levels (total hemoglobin; 2 mg/kg/d IV): measurable increase
- Fetal hemoglobin production [1]: induce fetal hemoglobin production
- Clinical response, SC without THU versus PO with THU ([2]; 2 mg/kg/d SC without THU versus 0.2 mg/kg/d PO with 200 mg/d THU): comparable clinical response
- Clinical response (total hemoglobin, fetal hemoglobin and F cell levels) ([2]; 5-azacytidine co-administered with THU): good clinical response
- F reticulocyte production ([2]; oral 5-azacytidine 2 mg/kg/d alone): did not result in increased F reticulocyte production
- Excipient compatibility ([3]; each excipient of the Example 3 formulation (Table 2)): compatible with each excipient
- Excipient compatibility ([3]; each excipient of the Example 4 formulation (Table 3)): compatible with each excipient
- Excipient compatibility ([3]; each excipient of the Example 6 formulation (Table 7)): compatible with each excipient
- Excipient compatibility ([3]; each excipient of the Example 7 formulation (Table 8)): compatible with each excipient
- Excipient compatibility ([3]; each excipient of the Example 8 formulation (Table 9)): compatible with each excipient
- Excipient compatibility ([3]; each excipient of the Example 9 formulation (Table 10)): compatible with each excipient
- Papp at 1000 micromolar ([4]; Caco-2, pH 7.4, with Carboxymethyl Cellulose 0.1%): 0.26 ± 0.09 ×10⁻⁶ cm/s
- Papp at 1000 micromolar ([4]; Caco-2, pH 7.4, with Chitosan 0.1%): 0.15 ± 0.01 ×10⁻⁶ cm/s
- Papp at 1000 micromolar ([4]; Caco-2, pH 7.4, with Labrafil 0.001%): 0.27 ± 0.02 ×10⁻⁶ cm/s
- Papp at 1000 micromolar ([4]; Caco-2, pH 7.4, with Labrafil 0.01%): 0.23 ± 0.04 ×10⁻⁶ cm/s
- Papp at 1000 micromolar ([4]; Caco-2, pH 7.4, with Labrafil 0.05%): 0.38 ± 0.13 ×10⁻⁶ cm/s
- Papp at 1000 micromolar ([4]; Caco-2, pH 7.4, with Labrafil 0.1%): 0.34 ± 0.002 ×10⁻⁶ cm/s
- Papp at 1000 micromolar ([4]; Caco-2, pH 7.4, with Poloxamer F127 0.1%): 0.13 ± 0.02 ×10⁻⁶ cm/s
- Papp at 1000 micromolar ([4]; Caco-2, pH 7.4, with Sodium Laurate 0.001%): 0.19 ± 0.04 ×10⁻⁶ cm/s
- Papp at 1000 micromolar ([4]; Caco-2, pH 7.4, with Sodium Laurate 0.01%): 0.19 ± 0.02 ×10⁻⁶ cm/s
- Papp at 1000 micromolar ([4]; Caco-2, pH 7.4, with Sodium Laurate 0.05%): 0.17 ± 0.03 ×10⁻⁶ cm/s
- Papp at 1000 micromolar ([4]; Caco-2, pH 7.4, with Sodium Laurate 0.1%, high permeability due to toxic effects of sodium laurate on Caco 2 cells): 15.8 ± 1.77 ×10⁻⁶ cm/s
- Papp at 1000 micromolar ([4]; Caco-2, pH 7.4, with Solutol 0.1%): 0.26 ± 0.04 ×10⁻⁶ cm/s
- Papp at 1000 micromolar ([4]; Caco-2, pH 7.4, with TPGS 0.001%): 0.33 ± 0.08 ×10⁻⁶ cm/s
- Papp at 1000 micromolar ([4]; Caco-2, pH 7.4, with TPGS 0.01%): 0.3 ± 0.05 ×10⁻⁶ cm/s
- Papp at 1000 micromolar ([4]; Caco-2, pH 7.4, with TPGS 0.05%): 0.45 ± 0.18 ×10⁻⁶ cm/s
- Papp at 1000 micromolar ([4]; Caco-2, pH 7.4, with TPGS 0.1%): 0.38 ± 0.09 ×10⁻⁶ cm/s
- Papp A→B at 1000 micromolar ([4]; Caco-2, pH 7.4, read-out: Papp (apical to basolateral permeability)): 0.15 ± 0.02 ×10⁻⁶ cm/s
